Reference: patent US20030207811A1, “Method of treating retinopathy of prematurity using somatostatin analogs” (priority 2002, published 2003)
Entries after “also recorded” stand apart in the source; their conditions may differ. Bridge positions count the residues as written; N and C are the ends. Square brackets hold non-standard residues; d marks the D form. Peptide text beside a SMILES is read from it.

Columns and labels:
[1] = tested on: oxygen induced retinopathy; assay: Oxygen induced retinopathy in neonatal mice, retinal scoring of fluorescein perfused whole mounts; type: in vivo, C57BL6 mice; conditions: for retinal neovascularization: mouse model of oxygen induced retinopathy; for median total retinopathy score / median total retinopathy score [median(25th, 75th quartile)]: oxygen reared; for median total retinopathy score [median(25th, 75th quartile)]: octreotide 20 μg kg^−1 bid s.c. P12-P16
Experimental: (§1) This protocol was approved by the Georgetown University Animal Care and Use committee and adhered to the Association for Research in Vision and Ophthalmology Statement for the Use of Animals in Ophthalmic and Vision Research. C57BL6 mice were obtained from Taconic Laboratories (Germantown, N.Y.). Neonatal mice were placed in an infant incubator with their nursing mother with 75% oxygen at P7 and remained in oxygen until removal to room air at P12 (Smith et al., 1994 Invest. Ophthalmol. Vis. Sci. 35, 101-11). Oxygen was delivered at 75±2%, measured with an oxygen analyser (Hudson Ventonics, Temecula, Calif., U.S.A.), and checked at least twice daily. Individual litters were either oxygen or room air reared. Within litters, differential treatment was performed including no treatment, octreotide, Woc4D, and sham injection. Animals were treated with injections for 5 days from P12 to P16. Animal killing was performed using a lethal dose of pentobarbital (120 mg/kg i.p.). Animals were perfused with fluorescein conjugated dextran as previously described (D'Amato et al., 1993, Microvasc. Res. 46, 135-42) and retinopathy was assessed by a retinal scoring system shown in Table I.
It was received and used as the acetate salt. Octreotide acetate was purchased from Polypeptide Laboratories. […] The analogs were dissolved in 33 mM acetate buffer (pH 5) with 135 mM NaCl. Sham injections were performed with that vehicle.
Retinopathy scores were evaluated by the Kruskal-Wallis test for the overall group and by the Mann-Whitney test to determine differences between groups. Animals weights and GH expression were evaluated using Student's t-test. Statistical significance was determined at the P<0.05 level.

[2] = tested on: pituitary growth hormone (GH) mRNA; assay: Pituitary growth hormone mRNA expression by RT-PCR; type: in vivo, C57BL6 mice
Experimental: RNA was extracted using TRIzol reagent (Life Technologies, Rockville, Md., U.S.A.) as described by the manufacturer and reverse transcriptase polymerase chain reaction (RT-PCR) was performed. Ten μg of RNA and 2 μM oligo(dT) 16 (total volume 22 μl) were heated at 68° C. for 2 min and cooled on ice. […] The mixture was incubated at 42° C. for 1 hour, then 99° C. for 5 min. The resultant cDNA was diluted with 100 μl of water and stored at -20° C. until PCR was performed. […] The mixture was incubated for 4 min at 94° C., followed by 28 cycles of 45 s at 94° C., 45 s at 58° C., and 45 s at 72° C., followed by 7 min at 72° C., in a PCR apparatus (model 2400, Perkin Elmer). To verify equal amounts of RNA were used in the PCR reaction and to verify uniform amplification process, β-actin mRNA was also amplified from the sample as an internal control. […] A 100 bp DNA ladder was used as a size marker. The number of cycles versus intensity of the PCR band was evaluated to determine the optimum number of cycles to be in the linear range. […] Retinopathy scores were evaluated by the Kruskal-Wallis test for the overall group and by the Mann-Whitney test to determine differences between groups. Animals weights and GH expression were evaluated using Student's t-test. Statistical significance was determined at the P<0.05 level.

[3] = Growth as measured by animal weight; type: in vivo, C57BL6 mice; conditions: Woc4D or octreotide treatment P12-P16
Experimental: as §1, with “Animal killing was performed using a lethal dose of pentobarbital (120 mg/kg i.p.).” left out, “I. […]” for “I.”
Retinopathy scores were evaluated by the Kruskal-Wallis test for the overall group and by the Mann-Whitney test to determine differences between groups. Animals weights and GH expression were evaluated using Student's t-test. Statistical significance was determined at the P<0.05 level. […]

SSTR2 [4] = molecular target: T1, SSTR2 (Homo sapiens, UniProt P30874); conditions: agonist analog; cited from earlier work
T1 sequence (P30874 whole entry, species assumed): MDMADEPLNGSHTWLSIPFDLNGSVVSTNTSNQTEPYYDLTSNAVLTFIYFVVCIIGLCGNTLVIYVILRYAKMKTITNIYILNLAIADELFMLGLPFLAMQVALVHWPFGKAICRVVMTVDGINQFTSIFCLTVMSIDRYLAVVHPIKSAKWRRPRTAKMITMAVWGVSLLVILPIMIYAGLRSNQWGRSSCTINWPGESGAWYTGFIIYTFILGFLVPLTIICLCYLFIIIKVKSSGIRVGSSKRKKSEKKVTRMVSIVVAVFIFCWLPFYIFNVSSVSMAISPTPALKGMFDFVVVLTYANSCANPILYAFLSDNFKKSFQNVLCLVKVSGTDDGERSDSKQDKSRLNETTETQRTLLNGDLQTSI

SSTR2 [5] = molecular target: T1, SSTR2; conditions: cited from earlier work

SMILES: C[C@@H](O)[C@H](NC(=O)[C@@H]1CSSC[C@H](NC(=O)[C@@H](Cc2ccc(O)cc2)NC(=O)[C@@H](Cc2ccc(O)cc2)NC(=O)[C@@H](Cc2ccc(O)cc2)NC(=O)[C@H](N)Cc2ccc(O)cc2)C(=O)N[C@@H](Cc2ccccc2)C(=O)N[C@H](Cc2c[nH]c3ccccc23)C(=O)N[C@@H](CCCCN)C(=O)N[C@@H]([C@@H](C)O)C(=O)N1)C(N)=O [Woc4D, Dtyr-Dtyr-Dtyr-Dtyr-cyclo(Cys-Phe-DTrp-Lys-Thr-Cys)-Thr-NH2] (H-[dY][dY][dY][dY]CF[dW]KTCT-NH2; disulfide 5-10; N-terminus assumed)
- Blood vessel growth subscore, median ([1]; Oxygen + Woc4D 50): 0
- Blood vessel tortuosity subscore, median ([1]; Oxygen + Woc4D 50): 1
- Hemorrhage subscore, median ([1]; Oxygen + Woc4D 50): 1
- Blood vessel growth subscore, median (25th, 75th quartile) ([1]; Room air + Woc4D 50): 0 (0, 0)
- Blood vessel tortuosity subscore, median (25th, 75th quartile) ([1]; Room air + Woc4D 50): 0 (0, 0)
- Blood vessel tufts subscore, median (25th, 75th quartile) ([1]; Room air + Woc4D 50): 0 (0, 0)
- Central vasoconstriction subscore, median (25th, 75th quartile) ([1]; Room air + Woc4D 50): 0 (0, 0)
- Extra retinal neovascularization subscore, median (25th, 75th quartile) ([1]; Room air + Woc4D 50): 0 (0, 0)
- Hemorrhage subscore, median (25th, 75th quartile) ([1]; Room air + Woc4D 50): 0 (0, 0)
- retinal neovascularization [1]: inhibited retinal neovascularization in an equally effective manner
- retinal vascular pathology in retinal whole mount (FIG. 3) ([1]; oxygen exposed, Woc4D treated animal): less retinal vascular pathology
- median total retinopathy score ([1]; Woc4D 20 μg kg^−1 day^−1 P12-P16): 6(3,7)
- oxygen stimulated GH mRNA ([2]; oxygen + Woc4D 50 μg kg^−1 day^−1 P12-P16): markedly reduced
- growth as measured by animal weight [3]: unaffected
- affinity of interaction with SSTR2 (SSTR2 [4]): high affinity

SMILES: C[C@@H](O)[C@@H]1NC(=O)[C@H](CCCCN)NC(=O)[C@@H](Cc2c[nH]c3ccccc23)NC(=O)[C@H](Cc2ccccc2)NC(=O)[C@@H](NC(=O)[C@H](N)Cc2ccccc2)CSSC[C@@H](C(=O)N[C@H](CO)[C@@H](C)O)NC1=O [octreotide, D-Phe-Cys-Phe-D-Trp-Lys-Thr-Cys Thr(ol)]
- Blood vessel growth subscore, median ([1]; Oxygen + oct 20 bid): 0
- Blood vessel tufts subscore, median ([1]; Oxygen + oct 20 bid): decreased blood vessel tufts; also recorded: improvement
- Central vasoconstriction subscore, median ([1]; Oxygen + oct 20 bid): 1
- Extra retinal neovascularization subscore, median ([1]; Oxygen + oct 20 bid): decreased extra-retinal neovascularization; also recorded: improvement
- Blood vessel growth subscore, median (25th, 75th quartile) ([1]; Room air + oct 20 bid): 0 (0, 0)
- Blood vessel tortuosity subscore, median (25th, 75th quartile) ([1]; Room air + oct 20 bid): 0 (0, 0)
- Blood vessel tufts subscore, median (25th, 75th quartile) ([1]; Room air + oct 20 bid): 0 (0, 0)
- Central vasoconstriction subscore, median (25th, 75th quartile) ([1]; Room air + oct 20 bid): 0 (0, 0)
- Extra retinal neovascularization subscore, median (25th, 75th quartile) ([1]; Room air + oct 20 bid): 0 (0, 0)
- Hemorrhage subscore, median (25th, 75th quartile) ([1]; Room air + oct 20 bid): 0 (0, 0)
- retinal neovascularization [1]: inhibited retinal neovascularization in an equally effective manner
- median total retinopathy score ([1]; octreotide 10 μg kg^−1 bid P12-P16): 6(3,7)
- median total retinopathy score [median(25th, 75th quartile)] [1]: significant improvement
- median total retinopathy score [median(25th, 75th quartile)] ([1]; listed as octreoride): 3.5(2.9, 4.3)
- oxygen stimulated GH mRNA ([2]; oxygen + octreotide 20 μg kg^−1 bid P12-P16): markedly reduced
- growth as measured by animal weight [3]: unaffected
- receptor selectivity of stimulation (SSTR2 [5]): effective in stimulating SSTR2 to the virtual exclusion of the other receptors
